Measurements reported in ChEMBL document CHEMBL3352603, “Synthesis and preliminary investigations into novel 1,2,3-triazole-derived androgen receptor antagonists inspired by bicalutamide” (Bioorg Med Chem Lett, 2014).
pIC50: −log10 of the molar value.

Tests used:
LNCaP = experiment: Growth inhibition of human LNCAP cells; type: functional, cell-based
[1] = Growth inhibition of human PC3 cells; type: functional, cell-based; settings: PC-3

Structure (SMILES) | pIC50 (LNCaP) | pIC50 [1]
CCOC(=O)c1ccc(-n2cc(C(C)(O)CS(=O)(=O)c3ccc(F)cc3)nn2)cc1 (racemic) | < 3.52 | < 3.52
CC(O)(CS(=O)(=O)c1ccccc1)c1cn(-c2ccc([N+](=O)[O-])c(C(F)(F)F)c2)nn1 (racemic) | 4.47 | 4.54
CC(O)(CS(=O)(=O)c1ccc(F)cc1)C(=O)Nc1ccc(C#N)c(C(F)(F)F)c1 (centres undefined) [BICALUTAMIDE] | 4.52 | 4.24
CC(O)(CS(=O)(=O)c1ccc(F)cc1)c1cn(-c2ccc(C(=O)O)cc2)nn1 (racemic) | < 3.52 | < 3.52
CC(O)(CS(=O)(=O)c1ccc(F)cc1)c1cn(-c2ccc([N+](=O)[O-])c(C(F)(F)F)c2)nn1 (racemic) | 4.44 | < 3.52
CC(O)(CS(=O)(=O)c1ccc(F)cc1)c1cn(-c2ccc(C#N)c(C(F)(F)F)c2)nn1 (racemic) | 4.35 | < 3.52
CC(O)(CS(=O)(=O)c1ccccc1)c1cn(-c2ccc(C#N)c(C(F)(F)F)c2)nn1 (racemic) | 3.82 | 3.94
